Measured values: US20240101531A1, “PYRIDINAMINE DERIVATIVES AND THEIR USE AS POTASSIUM CHANNEL MODULATORS” (Xenon Pharmaceuticals Inc., priority 2022, published 2024)
Structures can show the parent of a compound that is named as a salt.

The compounds below were run against human KV7.2/KV7.3 (Homo sapiens (Human), UniProt O43525+O43526) (assay: Potassium flux assay (IPG-2 AM dye)). Settings: TREX HEK 293 or HEK 293 cells expressing human KV7.2/KV7.3; arithmetic mean values.
Assay type: cell-based
Text: This potassium flux assay employs the cell-permeable, potassium-sensitive dye, IPG-2 AM, to quantify potassium ion flux through potassium channels.
In general, TREX HEK 293 or HEK 293 cells were stably transfected with either an inducible or non-inducible expression vector containing the full-length cDNA coding for the desired human KV7.2/KV7.3 or in combination with another full-length cDNA for a second desired human KV7 potassium channel. Potassium channel-expressing cell lines were induced with tetracycline (1 μg/mL), if required, and plated on 384-well poly-D-lysine (PDL)-coated plates in culture media (DMEM, containing 10% FBS and 1% L-glutamine). After overnight incubation, culture media was removed and cells were loaded with 5 μM IPG-2 AM dye for 1 hour in Assay buffer (140 mM NaCl, 20 mM RbCl, 2 mM CaCl2, 1 mM MgCl2, 10 mM HEPES (4-(2-hydroxyethyl)-1-piperazineethanesulfonic acid buffer), 10 mM glucose, adjusted with Tris to pH 7.4). Excess dye was removed, and cells incubated at room temperature for 20 minutes with or without test compound. A Hamamatsu FDSS μCell was used to perform a 1:1 addition of K challenge buffer (150 mM NaCl, 10 mM HEPES, 2 mM CaCl2, 10 mM KCl, 1 mM MgCl2, 10 mM glucose, adjusted with Tris to pH 7.4 for human KV7.2/KV7.3, and simultaneously read plates at excitation wavelength of 530 nm and emission wavelength of 558 nm. Non-potassium channel-mediated potassium influx was determined in the presence of DMSO, and maximal influx was determined in the presence of a known KV7.x channel modulator. For each test compound, a concentration response curve was generated with 16 concentrations points, 2-fold serial dilution starting at 30 μM and an EC50 value was determined.

How did the EC50 turn out when `FC1(F)CN[C@@H](COc2ccc3c(Nc4ccc(Cl)nc4)nccc3c2)C1` [Example 227, (R)—N-(6-chloropyridin-3-yl)-6-((4,4-difluoropyrrolidin-2-yl)methoxy)isoquinolin-1-amine trifluoroacetate] was run?
Its EC50 is 1 to 10 µM.

With `C[Si](C)(C)CCOCN(c1ccc(Cl)nc1)c1nccc2cc(F)ccc12` [Example 92, N-(6-chloropyridin-3-yl)-6-fluoro-N-((2-(trimethylsilyl)ethoxy)-methyl)isoquinolin-1-amine] as the compound, how does the EC50 read?
Its EC50 is 1 to 10 µM.

Which EC50 does the source give for `Clc1ccc(Nc2nccc3cc(OCCn4ccnc4)ccc23)cn1` [Example 74, 6-(2-(1H-imidazol-1-yl)ethoxy)-N-(6-chloropyridin-3-yl)isoquinolin-1-amine] here?
The EC50 was no less than 30 µM.

How did the EC50 turn out when `CC(=O)N[C@H]1CC[C@H](Oc2ccc3c(Nc4ccc(Cl)nc4)nccc3c2)CC1` [Example 317, N-(trans-4-((1-((6-chloropyridin-3-yl)amino)isoquinolin-6-yl)oxy)cyclohexyl)acetamide] was run?
The EC50 was 1 to 10 µM.

`C#CC(C)(C)COc1ccc2c(Nc3ccc(Cl)nc3)nccc2c1` [Example 136, N-(6-chloropyridin-3-yl)-6-((2,2-dimethylbut-3-yn-1-yl)oxy)isoquinolin-1-amine] was tested. Which EC50 did it give?
The EC50 was 1 to 10 µM.

`CC#CC(C)(C)COc1ccc2c(Nc3ccc(Cl)nc3)nccc2c1` [Example 161, N-(6-chloropyridin-3-yl)-6-((2,2-dimethylpent-3-yn-1-yl)oxy)isoquinolin-1-amine] was tested. Which EC50 did it give?
Its EC50 is 1 to 10 µM.

How did the EC50 turn out when `CC1(CNc2ccc3c(Nc4ccc(Cl)nc4)nccc3c2)COC1` [Example 245, N′-(6-chloropyridin-3-yl)-N^6-((3-methyloxetan-3-yl)methyl)isoquinoline-1,6-diamine] was run?
Its EC50 is 1 to 10 µM.

Which EC50 does the source give for `O[C@H]1CC[C@@H](Oc2ccc3c(Nc4ccc(Cl)nc4)nccc3c2)C1` (racemic) [Example 102, rac-(1S,3R)-3-((1-((6-chloropyridin-3-yl)amino)isoquinolin-6-yl)oxy)cyclopentan-1-ol] here?
Its EC50 is less than 1 µM.

For `O=C(NCC1CC1)c1ccc2c(Nc3ccc(Cl)nc3)nccc2c1` [Example 419, 1-((6-chloropyridin-3-yl)amino)-N-(cyclopropylmethyl)isoquinoline-6-carboxamide], which EC50 is on record?
Its EC50 is 10 to 30 µM.

`C[C@@H](Oc1ccc2c(Nc3ccc(Cl)nc3)nccc2c1)C1(F)CC1` [Example 139, (R)-N-(6-chloropyridin-3-yl)-6-(1-(1-fluorocyclopropyl)ethoxy)isoquinolin-1-amine] was tested. Which EC50 did it give?
The EC50 was 1 to 10 µM.

`N#CC1(COc2ccc3c(Nc4ccc(Cl)nc4)nccc3c2)CCC1` [Example 77, 1-(((1-((6-chloropyridin-3-yl)amino)isoquinolin-6-yl)oxy)methyl)cyclobutane-1-carbonitrile] was tested. Which EC50 did it give?
Its EC50 is less than 1 µM.

With `Clc1ccc(Nc2nccc3cc(OCCN4CCOCC4)ccc23)cn1` [Example 201, N-(6-chloropyridin-3-yl)-6-(2-morpholinoethoxy)isoquinolin-1-amine] as the compound, how does the EC50 read?
Its EC50 is 1 to 10 µM.

`Cc1ncc(Nc2nccc3cc(N=S(C)(=O)C4CC4)ccc23)cn1` (centres unmarked) [Example 278, cyclopropyl(methyl)((1-((2-methylpyrimidin-5-yl)amino)isoquinolin-6-yl)imino)-λ^6-sulfanone] was tested. Which EC50 did it give?
The EC50 was 1 to 10 µM.

Which EC50 does the source give for `Clc1ccc(Nc2nccc3cc(OC4CCCOC4)ccc23)cn1` (centres unmarked) [Example 216, N-(6-chloropyridin-3-yl)-6-((tetrahydro-2H-pyran-3-yl)oxy)isoquinolin-1-amine] here?
Its EC50 is less than 1 µM.

How did the EC50 turn out when `COc1ncc(Nc2nccc3cc(OCC4(F)CC4)ccc23)cn1` [Example 46, 6-((1-fluorocyclopropyl)methoxy)-N-(2-methoxypyrimidin-5-yl)isoquinolin-1-amine] was run?
The EC50 was 1 to 10 µM.

`Oc1ccc2c(Nc3cnc(Cl)nc3)nccc2c1` [Example 243, 1-((2-chloropyrimidin-5-yl)amino)isoquinolin-6-ol] was tested. Which EC50 did it give?
The EC50 was 10 to 30 µM.

For `FC1(COc2ccc3c(Nc4ccc(C(F)(F)F)nc4)nccc3c2)CC1` [Example 47, 6-((1-fluorocyclopropyl)methoxy)-N-(6-(trifluoromethyl)pyridin-3-yl)isoquinolin-1-amine], which EC50 is on record?
Its EC50 is no less than 30 µM.

For `C[C@](O)(COc1ccc2c(Nc3ccc(Cl)nc3)nccc2c1)C(F)(F)F` [Example 225, (S)-3-((1-((6-chloropyridin-3-yl)amino)isoquinolin-6-yl)oxy)-1,1,1-trifluoro-2-methylpropan-2-ol], which EC50 is on record?
Its EC50 is 1 to 10 µM.

`Clc1ccc(Nc2nccc3cc(OC[C@H]4CCN(Cc5ccccc5)C4)ccc23)cn1` [Example 284, (S)-6-((1-benzylpyrrolidin-3-yl)methoxy)-N-(6-chloropyridin-3-yl)isoquinolin-1-amine] was tested. Which EC50 did it give?
The EC50 was 1 to 10 µM.

`COc1ncc(COc2ccc3c(Nc4ccc(Cl)nc4)nccc3c2)cn1` [Example 186, N-(6-chloropyridin-3-yl)-6-((2-methoxypyrimidin-5-yl)methoxy)isoquinolin-1-amine] was tested. Which EC50 did it give?
Its EC50 is 1 to 10 µM.

For `Clc1ccc(Nc2nccc3cc(OC4CCC45COC5)ccc23)cn1` (centres unmarked) [Example 290, 6-((2-oxaspiro[3.3]heptan-5-yl)oxy)-N-(6-chloropyridin-3-yl)isoquinolin-1-amine], which EC50 is on record?
The EC50 was less than 1 µM.

For `COC1(COc2ccc3c(Nc4cnc(C)nc4)nccc3c2)COC1` [Example 219, 6-((3-methoxyoxetan-3-yl)methoxy)-N-(2-methylpyrimidin-5-yl)isoquinolin-1-amine formate], which EC50 is on record?
The EC50 was 1 to 10 µM.

With `Cn1cc(COc2ccc3c(Nc4cnc(Cl)c(O)c4)nccc3c2)cn1` [Example 374, 2-chloro-5-((6-((1-methyl-1H-pyrazol-4-yl)methoxy)isoquinolin-1-yl)amino)pyridin-3-ol] as the compound, how does the EC50 read?
Its EC50 is less than 1 µM.

`CC1(C)CC1(C#N)COc1ccc2c(Nc3cnc(Cl)nc3)nccc2c1` (centres unmarked) [Example 351, 1-(((1-((2-chloropyrimidin-5-yl)amino)isoquinolin-6-yl)oxy)methyl)-2,2-dimethylcyclopropane-1-carbonitrile] was tested. Which EC50 did it give?
The EC50 was less than 1 µM.

How did the EC50 turn out when `OCC1(COc2ccc3c(Nc4ccc(Cl)nc4)nccc3c2)CC1` [Example 238, (1-(((1-((6-chloropyridin-3-yl)amino)isoquinolin-6-yl)oxy)methyl)cyclopropyl)methanol] was run?
The EC50 was less than 1 µM.

`Cc1cc2ccccc2c(Nc2ccc(Cl)nc2)n1` [Example 398, N-(6-chloropyridin-3-yl)-3-methylisoquinolin-1-amine] was tested. Which EC50 did it give?
The EC50 was no less than 30 µM.

With `O=S1(=O)CC(COc2ccc3c(Nc4ccc(Cl)nc4)nccc3c2)C1` [Example 300, 3-(((1-((6-chloropyridin-3-yl)amino)isoquinolin-6-yl)oxy)methyl)thietane 1,1-dioxide] as the compound, how does the EC50 read?
Its EC50 is less than 1 µM.

For `CS(=O)(=Nc1ccc2c(Nc3ccc(Cl)nc3)nccc2c1)C1CCOCC1` (centres unmarked) [Example 270, ((1-((6-chloropyridin-3-yl)amino)isoquinolin-6-yl)imino)(methyl)(tetrahydro-2H-pyran-4-yl)-λ^6-sulfanone], which EC50 is on record?
The EC50 was 1 to 10 µM.

Which EC50 does the source give for `Clc1ccc(Nc2nccc3cc(OCCN4CC5(COC5)C4)ccc23)cn1` [Example 73, 6-(2-(2-oxa-6-azaspiro[3.3]heptan-6-yl)ethoxy)-N-(6-chloropyridin-3-yl)isoquinolin-1-amine] here?
The EC50 was no less than 30 µM.

How did the EC50 turn out when `CC(CN1CCOCC1)Oc1ccc2c(Nc3ccc(Cl)nc3)nccc2c1` (centres unmarked) [Example 109, N-(6-chloropyridin-3-yl)-6-((1-morpholinopropan-2-yl)oxy)isoquinolin-1-amine] was run?
The EC50 was 1 to 10 µM.

With `Cc1n[nH]c(C)c1COc1ccc2c(Nc3ccc(Cl)nc3)nccc2c1` [Example 338, N-(6-chloropyridin-3-yl)-6-((3,5-dimethyl-1H-pyrazol-4-yl)methoxy)isoquinolin-1-amine] as the compound, how does the EC50 read?
The EC50 was 1 to 10 µM.

`Clc1ccc(Nc2nccc3cc(OCCc4ncccn4)ccc23)cn1` [Example 387, N-(6-chloropyridin-3-yl)-6-(2-(pyrimidin-2-yl)ethoxy)isoquinolin-1-amine] was tested. Which EC50 did it give?
Its EC50 is 1 to 10 µM.

With `Clc1ncc(Nc2nccc3cc(OCCCc4cn[nH]c4)ccc23)cn1` [Example 389, 6-(3-(1H-pyrazol-4-yl)propoxy)-N-(2-chloropyrimidin-5-yl)isoquinolin-1-amine] as the compound, how does the EC50 read?
Its EC50 is less than 1 µM.

How did the EC50 turn out when `CCn1ccc(COc2ccc3c(Nc4ccc(Cl)nc4)nccc3c2)n1` [Example 188, N-(6-chloropyridin-3-yl)-6-((1-ethyl-1H-pyrazol-3-yl)methoxy)isoquinolin-1-amine formate] was run?
Its EC50 is 1 to 10 µM.

With `Cc1ncc(Nc2nccc3cc(OCC4CCC(C)(C)O4)ccc23)cn1` (centres unmarked) [Example 27, 6-((5,5-dimethyltetrahydrofuran-2-yl)methoxy)-N-(2-methylpyrimidin-5-yl)isoquinolin-1-amine] as the compound, how does the EC50 read?
The EC50 was 1 to 10 µM.

How did the EC50 turn out when `Cn1cnnc1COc1ccc2c(Nc3ccc(Cl)nc3)nccc2c1` [Example 87, N-(6-chloropyridin-3-yl)-6-((4-methyl-4H-1,2,4-triazol-3-yl)methoxy)isoquinolin-1-amine] was run?
Its EC50 is 1 to 10 µM.

`COCCN1CCC(Oc2ccc3c(Nc4ccc(Cl)nc4)nccc3c2)CC1` [Example 119, N-(6-chloropyridin-3-yl)-6-((1-(2-methoxyethyl)piperidin-4-yl)oxy)isoquinolin-1-amine] was tested. Which EC50 did it give?
The EC50 was 10 to 30 µM.

Which EC50 does the source give for `Cc1ncc(Nc2nccc3cc(OCC4(C)COC4)ccc23)cn1` [Example 218, 6-((3-methyloxetan-3-yl)methoxy)-N-(2-methylpyrimidin-5-yl)isoquinolin-1-amine] here?
The EC50 was less than 1 µM.
